Assay results taken from ChEMBL document CHEMBL1201862, “PubChem BioAssay data set” (2004).
Calls of active or inactive are those of the source.

Experiments:
[1] = target: SWI/SNF-related matrix-associated actin-dependent regulator of chromatin subfamily A member 2 (Homo sapiens, UniProt P51531); test: Luminescence-based cell-based high throughput dose response assay to identify activators of the function of SWI/SNF related, matrix associated, actin dependent regulator of chromatin, subfamily a, member 2 (SMARCA2, BRM).; type: functional
[2] = Counterscreen for activators of the function of SWI/SNF related, matrix associated, actin dependent regulator of chromatin, subfamily a, member 2 (SMARCA2, BRM): Luminescence-based cell-based high throughput dose response assay to identify non-selective compounds using the VP16 reporter assay.; type: functional
[3] = target: Tyrosyl-DNA phosphodiesterase 2 (Homo sapiens, UniProt O95551); test: potency against TDP2 phosphodiesterase activity – biochemical, epi absorbance, IC50, dose response (AID 743297)
[4] = target: Long-chain-fatty-acid--AMP ligase FadD28 (Mycobacterium tuberculosis, UniProt P9WQ59); test: Fluorescence polarization aasay to screen for inhibitors that compete for the binding of FadD28 to a bisubstrate Measured in Biochemical System Using Plate Reader - 2147-01_Inhibitor_Dose_CherryPick_Activity.; type: functional, Mycobacterium tuberculosis H37Rv
[5] = target: Fructose-bisphosphate aldolase (Mycobacterium tuberculosis, UniProt P9WQA3); test: Fluorescence-based biochemical high throughput dose response assay for inhibitors of the fructose-bisphosphate aldolase (FBA) of M. tuberculosis.; type: functional
[6] = microbe, parasite or virus in culture; type: functional; conditions: Mycobacterium tuberculosis
[7] = Fluorescence-based cell-based high throughput dose response assay for inhibitors of the interaction of nucleotide-binding oligomerization domain containing 2 (NOD2) and the receptor-interacting serine-threonine kinase 2 (RIPK2).; type: functional; conditions: Homo sapiens
Beta Lactamase = Beta Lactamase (Pseudomonas aeruginosa, UniProt Q932Y6); test: BLA reporter interference, concentration series – BLA reporter cells, FRET fluorescence, artefact control for NOD2-RIPK2 interaction inhibitor project, dose response (AID 651552); type: functional, cell-based
[8] = general mammalian cell viability loss – inhibitor set, cherry-pick, set 2, cytotoxicity control for miR-122 modulator project, dose response (AID 720697); type: functional, cell-based
Galanin receptor type 3 = Galanin receptor type 3 (Homo sapiens, UniProt O60755); test: Fluorescence-based cell-based primary high throughput dose response assay to identify antagonists of the Galanin Receptor 3 (GalR3).; type: functional
cells = type: functional, cell-based; conditions: HEK-CNG
[9] = target: Adenosylmethionine-8-amino-7-oxononanoate aminotransferase (Mycobacterium tuberculosis, UniProt P9WQ81); test: Mycobacterium tuberculosis BioA enzyme inhibitor Measured in Biochemical System Using Plate Reader - 2163-02_Inhibitor_Dose_CherryPick_Activity.; type: functional, Mycobacterium tuberculosis UT205
[10] = HGIII-sPLA2 enzyme inhibition potency – biochemical, QFRET, IC50, dose response (AID 743457);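 further: green fluorescence rise as the enzyme cleaves BODIPY PC-A2 in liposomes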
[11] = inhibition of ARNT PAS-B/TACC3 complex formation – biochemical, AlphaScreen, cherry-picked samples, confirmation (AID 651703); type: functional, Homo sapiens;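 further: His-tagged ARNT PAS-B domain paired with GST-TACC3 E629A dimer coactivator fragment; potency of inhibitors that break up the complex and lower AlphaScreen signal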
[12] = target: Hepatocyte nuclear factor 4-alpha (Homo sapiens, UniProt P41235); type: functional, cell-based;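 further: biochemical luminescence-based dose-response counterscreen measuring inhibition of HNF4 dimerization, run alongside a screen for blockers of ABHD5–perilipin-5 interaction; split luciferase complementation of HNF4 fusion proteins in cell lysate measuring dimerization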
Beta-galactosidase = Beta-galactosidase (Escherichia coli, UniProt Q8VNN2); test: Dose response counterscreen for EBI2 assay utilizing the enzyme, b-galactosidase.; type: functional
[13] = target: Peroxisome proliferator-activated receptor gamma/Nuclear receptor coactivator 1 (Homo sapiens, UniProt P37231); test: (§1) TR-FRET dose response biochemical High Throughput Screening assay for agonists of the steroid receptor coactivator 1 (SRC-1) recruitment by the peroxisome proliferator-activated receptor gamma (PPAR gamma): non-selective agonists. [Related pubchem assays (depositor defined):AID1300, AID1808, AID504735, AID631]; type: protein assay
[14] = target: Peroxisome proliferator-activated receptor gamma/Nuclear receptor coactivator 3 (Homo sapiens, UniProt P37231); test: as §1, with “3 (SRC-3)” for “1 (SRC-1)”, “assays: 1301 (Confirmation screen.), 1048 (Primary screen.)]” for “assays (depositor defined):AID1300, AID1808, AID504735, AID631]”; type: functional
[15] = target: Peroxisome proliferator-activated receptor gamma/Nuclear receptor coactivator 2 (Homo sapiens, UniProt P37231); test: TR-FRET dose response biochemical High Throughput Screening assay for agonists of the steroid receptor coactivator 2 (SRC-2) recruitment by the peroxisome proliferator-activated receptor gamma (PPAR gamma): non-selective agonists. [Related pubchem assays: 1297, 1032 ]; type: functional
[16] = Counterscreen for inhibitors of Trypanosoma brucei methionyl tRNA synthetase (MetRS): Luminescence-based cell-based high throughput dose response assay to identify compounds that are cytotoxic to Jurkat human T lymphocyte cells.; type: functional
[17] = target: T1, Endoribonuclease toxin MazF (Escherichia coli K-12, UniProt P0AE70); test: activation of MazEF endoribonuclease cleavage – biochemical, fluorescence, single-stranded RNA substrate, uHTS hits, dose response (AID 588481); type: functional
T1 sequence (P0AE70 whole entry): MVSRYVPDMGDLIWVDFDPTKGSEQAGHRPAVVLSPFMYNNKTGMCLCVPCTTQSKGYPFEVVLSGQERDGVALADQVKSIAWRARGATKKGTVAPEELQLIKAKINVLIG

[18] = target: T1, Endoribonuclease toxin MazF; test: substrate-only fluorescence increase artefacts – biochemical, single-stranded RNase substrate, counter-screen for MazEF activator project, dose response (AID 588502); type: functional
[19] = target: T2, Sentrin-specific protease 1 (Homo sapiens, UniProt Q9P0U3); test: SENP1 catalytic domain blockers, concentration series – biochemical, kinetic FRET, dose response (AID 651697); type: functional; conditions: read-out: IC50_Mean
T2 sequence (Q9P0U3 whole entry): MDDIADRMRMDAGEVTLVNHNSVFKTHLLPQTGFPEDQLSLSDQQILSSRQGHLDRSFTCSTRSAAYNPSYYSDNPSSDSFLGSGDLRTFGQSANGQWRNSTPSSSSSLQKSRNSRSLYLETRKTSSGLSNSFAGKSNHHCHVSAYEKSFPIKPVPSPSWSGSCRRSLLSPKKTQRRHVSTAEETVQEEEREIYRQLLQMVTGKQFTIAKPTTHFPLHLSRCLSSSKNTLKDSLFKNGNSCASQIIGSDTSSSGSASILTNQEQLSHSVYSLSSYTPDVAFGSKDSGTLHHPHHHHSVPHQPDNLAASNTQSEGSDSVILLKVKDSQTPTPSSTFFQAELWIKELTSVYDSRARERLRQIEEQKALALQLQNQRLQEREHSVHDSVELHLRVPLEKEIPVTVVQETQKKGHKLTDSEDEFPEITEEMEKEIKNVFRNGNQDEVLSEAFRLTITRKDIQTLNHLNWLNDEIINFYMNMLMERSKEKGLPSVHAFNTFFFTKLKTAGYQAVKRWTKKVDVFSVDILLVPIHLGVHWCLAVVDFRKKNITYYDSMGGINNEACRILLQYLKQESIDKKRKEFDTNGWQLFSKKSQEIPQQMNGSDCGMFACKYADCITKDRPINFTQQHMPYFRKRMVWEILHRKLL

[20] = target: T2, Sentrin-specific protease 1; test: Dose response confirmation of small molecule inhibitors of the catalytic domain of the SUMO protease, SENP1 in a FRET assay.; type: functional; conditions: read-out: IC50_Mean
[21] = target: T3, DNA repair and recombination protein RAD54-like (Homo sapiens, UniProt Q92698); test: RAD54 Holliday junction migration blockers – biochemical, fluorescence, cherry-picked samples, dose series, confirmation (AID 651657); type: functional
T3 sequence (Q92698 whole entry): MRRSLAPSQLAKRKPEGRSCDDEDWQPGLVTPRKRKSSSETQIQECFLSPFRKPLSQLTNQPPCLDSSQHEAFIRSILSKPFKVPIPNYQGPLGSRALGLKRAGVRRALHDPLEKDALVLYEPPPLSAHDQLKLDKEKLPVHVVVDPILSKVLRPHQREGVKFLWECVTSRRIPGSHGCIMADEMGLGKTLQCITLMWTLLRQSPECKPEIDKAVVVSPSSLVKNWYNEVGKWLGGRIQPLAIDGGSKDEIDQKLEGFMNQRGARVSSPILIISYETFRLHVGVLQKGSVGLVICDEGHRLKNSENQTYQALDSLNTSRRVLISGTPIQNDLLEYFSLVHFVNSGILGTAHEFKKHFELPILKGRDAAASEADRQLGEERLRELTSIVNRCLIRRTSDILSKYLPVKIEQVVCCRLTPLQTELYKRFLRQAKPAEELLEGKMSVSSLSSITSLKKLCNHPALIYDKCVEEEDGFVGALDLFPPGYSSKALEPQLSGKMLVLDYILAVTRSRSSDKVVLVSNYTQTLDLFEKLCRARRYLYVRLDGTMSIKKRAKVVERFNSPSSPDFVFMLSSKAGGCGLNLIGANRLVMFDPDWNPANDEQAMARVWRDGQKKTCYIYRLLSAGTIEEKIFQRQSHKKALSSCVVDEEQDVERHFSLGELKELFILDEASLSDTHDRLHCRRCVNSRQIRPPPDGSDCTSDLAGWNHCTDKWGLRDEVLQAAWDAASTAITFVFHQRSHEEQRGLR

Albumin = Albumin (Bos taurus, UniProt P02769); test: Counterscreen for inhibitors of T-cell receptor (TCR)-CD3 interaction: Fluorescence-based biochemical high throughput dose response assay to identify inhibitors of T-cell receptor (TCR)-CD3 interaction using a TAMRA-labeled BSA probe.; type: functional
Albumin, sequence (P02769 whole entry): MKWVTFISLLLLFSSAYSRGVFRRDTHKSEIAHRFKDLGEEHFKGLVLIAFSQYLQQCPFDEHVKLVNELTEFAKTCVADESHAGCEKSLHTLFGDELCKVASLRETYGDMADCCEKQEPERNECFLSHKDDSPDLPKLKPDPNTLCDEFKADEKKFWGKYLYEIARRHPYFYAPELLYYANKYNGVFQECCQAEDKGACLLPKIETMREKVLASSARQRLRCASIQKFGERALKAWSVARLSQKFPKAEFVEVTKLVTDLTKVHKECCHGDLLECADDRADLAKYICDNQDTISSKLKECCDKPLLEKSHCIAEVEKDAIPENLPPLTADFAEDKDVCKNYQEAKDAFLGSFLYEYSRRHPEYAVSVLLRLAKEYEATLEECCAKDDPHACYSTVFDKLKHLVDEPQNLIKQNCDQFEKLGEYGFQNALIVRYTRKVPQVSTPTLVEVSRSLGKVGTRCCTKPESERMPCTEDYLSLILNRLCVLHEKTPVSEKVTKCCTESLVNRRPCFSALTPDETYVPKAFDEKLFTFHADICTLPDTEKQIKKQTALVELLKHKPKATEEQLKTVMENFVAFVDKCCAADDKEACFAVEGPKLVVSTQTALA

Hepatocyte nuclear factor 4-alpha, sequence (P41235 whole entry, the tested form may be a part): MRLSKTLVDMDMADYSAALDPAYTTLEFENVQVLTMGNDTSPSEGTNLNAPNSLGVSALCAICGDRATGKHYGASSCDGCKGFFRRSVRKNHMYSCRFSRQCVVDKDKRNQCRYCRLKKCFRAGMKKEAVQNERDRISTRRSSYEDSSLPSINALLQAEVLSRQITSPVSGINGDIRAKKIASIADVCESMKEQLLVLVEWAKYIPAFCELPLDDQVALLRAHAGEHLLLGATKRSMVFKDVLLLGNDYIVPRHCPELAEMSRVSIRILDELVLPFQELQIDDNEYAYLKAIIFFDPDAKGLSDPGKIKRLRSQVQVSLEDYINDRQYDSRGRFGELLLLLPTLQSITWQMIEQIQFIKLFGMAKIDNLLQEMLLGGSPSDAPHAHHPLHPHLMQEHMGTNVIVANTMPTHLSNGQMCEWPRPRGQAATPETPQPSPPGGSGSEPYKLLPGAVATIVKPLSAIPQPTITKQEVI
Galanin receptor type 3, sequence (O60755 whole entry): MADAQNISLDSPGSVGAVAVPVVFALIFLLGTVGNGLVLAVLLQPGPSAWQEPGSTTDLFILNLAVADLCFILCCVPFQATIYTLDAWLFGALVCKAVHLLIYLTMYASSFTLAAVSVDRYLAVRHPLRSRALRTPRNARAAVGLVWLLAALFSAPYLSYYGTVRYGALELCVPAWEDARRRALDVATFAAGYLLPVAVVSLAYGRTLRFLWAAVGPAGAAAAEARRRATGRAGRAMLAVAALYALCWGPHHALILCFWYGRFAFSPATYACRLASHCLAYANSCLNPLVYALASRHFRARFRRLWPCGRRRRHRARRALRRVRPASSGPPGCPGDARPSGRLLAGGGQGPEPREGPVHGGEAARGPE
Beta-galactosidase, sequence (Q8VNN2 whole entry): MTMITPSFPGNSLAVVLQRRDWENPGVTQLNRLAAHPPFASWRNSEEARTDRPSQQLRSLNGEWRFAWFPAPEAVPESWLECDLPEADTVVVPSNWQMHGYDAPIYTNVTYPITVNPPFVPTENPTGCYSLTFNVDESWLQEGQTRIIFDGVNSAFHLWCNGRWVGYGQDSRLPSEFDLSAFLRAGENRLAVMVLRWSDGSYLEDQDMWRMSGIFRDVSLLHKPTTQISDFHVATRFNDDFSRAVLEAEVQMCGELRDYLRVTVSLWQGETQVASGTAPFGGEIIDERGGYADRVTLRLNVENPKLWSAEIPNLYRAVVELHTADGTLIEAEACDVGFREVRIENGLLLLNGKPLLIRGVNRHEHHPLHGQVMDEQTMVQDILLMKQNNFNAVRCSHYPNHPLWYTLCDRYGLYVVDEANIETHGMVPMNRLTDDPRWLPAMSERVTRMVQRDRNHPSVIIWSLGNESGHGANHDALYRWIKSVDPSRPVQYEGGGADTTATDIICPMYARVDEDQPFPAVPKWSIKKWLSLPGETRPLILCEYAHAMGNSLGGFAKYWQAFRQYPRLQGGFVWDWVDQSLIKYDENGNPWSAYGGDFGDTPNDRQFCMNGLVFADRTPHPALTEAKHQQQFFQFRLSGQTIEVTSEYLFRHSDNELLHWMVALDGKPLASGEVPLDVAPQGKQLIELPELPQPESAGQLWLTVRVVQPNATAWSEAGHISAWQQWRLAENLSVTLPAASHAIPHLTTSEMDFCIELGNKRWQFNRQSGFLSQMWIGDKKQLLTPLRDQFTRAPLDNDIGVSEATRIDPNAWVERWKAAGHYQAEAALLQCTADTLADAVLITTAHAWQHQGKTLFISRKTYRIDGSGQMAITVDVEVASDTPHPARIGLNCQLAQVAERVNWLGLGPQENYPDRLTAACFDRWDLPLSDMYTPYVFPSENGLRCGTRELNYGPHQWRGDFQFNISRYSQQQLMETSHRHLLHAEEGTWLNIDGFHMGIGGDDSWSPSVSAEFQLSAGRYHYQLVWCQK
Fructose-bisphosphate aldolase, sequence (P9WQA3 whole entry): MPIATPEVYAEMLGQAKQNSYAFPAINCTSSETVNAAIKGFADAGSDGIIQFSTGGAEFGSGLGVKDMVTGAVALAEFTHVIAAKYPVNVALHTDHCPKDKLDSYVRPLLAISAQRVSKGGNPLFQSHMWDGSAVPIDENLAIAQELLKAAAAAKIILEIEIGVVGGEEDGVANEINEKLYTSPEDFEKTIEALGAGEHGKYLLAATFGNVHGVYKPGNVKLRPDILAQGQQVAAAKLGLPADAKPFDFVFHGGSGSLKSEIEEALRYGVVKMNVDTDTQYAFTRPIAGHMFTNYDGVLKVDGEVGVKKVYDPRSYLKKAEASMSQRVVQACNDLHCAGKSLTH
SWI/SNF-related matrix-associated actin-dependent regulator of chromatin subfamily A member 2, sequence (P51531 whole entry): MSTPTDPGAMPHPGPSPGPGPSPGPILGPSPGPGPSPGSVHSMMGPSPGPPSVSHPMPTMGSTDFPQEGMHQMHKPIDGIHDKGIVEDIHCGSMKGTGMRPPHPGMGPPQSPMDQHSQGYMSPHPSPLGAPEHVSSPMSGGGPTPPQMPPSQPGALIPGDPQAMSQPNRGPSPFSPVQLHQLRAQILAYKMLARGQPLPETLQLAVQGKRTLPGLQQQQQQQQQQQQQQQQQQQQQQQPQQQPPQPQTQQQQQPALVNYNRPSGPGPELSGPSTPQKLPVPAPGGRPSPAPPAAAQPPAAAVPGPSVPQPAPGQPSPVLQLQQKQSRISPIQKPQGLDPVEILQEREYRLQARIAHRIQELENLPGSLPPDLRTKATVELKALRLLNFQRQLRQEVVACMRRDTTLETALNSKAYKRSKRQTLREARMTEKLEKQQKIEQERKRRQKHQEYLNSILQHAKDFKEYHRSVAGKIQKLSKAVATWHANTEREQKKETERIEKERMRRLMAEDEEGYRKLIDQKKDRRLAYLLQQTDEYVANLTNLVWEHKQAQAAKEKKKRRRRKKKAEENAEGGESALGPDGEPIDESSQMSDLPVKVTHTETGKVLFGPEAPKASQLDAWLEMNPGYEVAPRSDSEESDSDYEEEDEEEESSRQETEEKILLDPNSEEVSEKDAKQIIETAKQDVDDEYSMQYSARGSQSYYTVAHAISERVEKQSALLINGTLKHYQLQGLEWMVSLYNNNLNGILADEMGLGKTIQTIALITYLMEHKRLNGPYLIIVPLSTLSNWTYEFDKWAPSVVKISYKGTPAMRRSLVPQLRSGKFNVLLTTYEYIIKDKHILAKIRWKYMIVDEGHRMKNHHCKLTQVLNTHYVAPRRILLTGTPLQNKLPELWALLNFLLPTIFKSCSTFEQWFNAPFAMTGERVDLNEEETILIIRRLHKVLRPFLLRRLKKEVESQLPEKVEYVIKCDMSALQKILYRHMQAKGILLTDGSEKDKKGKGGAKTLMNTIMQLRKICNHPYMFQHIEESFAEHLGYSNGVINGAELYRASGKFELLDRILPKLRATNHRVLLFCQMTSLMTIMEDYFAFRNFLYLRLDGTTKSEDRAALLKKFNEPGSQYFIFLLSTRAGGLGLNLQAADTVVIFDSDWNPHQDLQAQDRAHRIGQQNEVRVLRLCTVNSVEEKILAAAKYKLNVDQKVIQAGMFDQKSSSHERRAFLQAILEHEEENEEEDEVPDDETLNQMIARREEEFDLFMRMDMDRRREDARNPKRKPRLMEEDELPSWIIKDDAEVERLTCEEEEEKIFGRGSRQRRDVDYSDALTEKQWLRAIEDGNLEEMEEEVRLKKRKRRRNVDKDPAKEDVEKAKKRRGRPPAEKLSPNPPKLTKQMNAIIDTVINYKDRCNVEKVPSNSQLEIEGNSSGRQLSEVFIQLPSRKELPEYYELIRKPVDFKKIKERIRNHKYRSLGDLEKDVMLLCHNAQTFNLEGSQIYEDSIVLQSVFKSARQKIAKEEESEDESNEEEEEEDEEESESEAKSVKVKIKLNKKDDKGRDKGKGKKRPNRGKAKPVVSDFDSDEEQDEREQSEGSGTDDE
Long-chain-fatty-acid--AMP ligase FadD28, sequence (P9WQ59 whole entry): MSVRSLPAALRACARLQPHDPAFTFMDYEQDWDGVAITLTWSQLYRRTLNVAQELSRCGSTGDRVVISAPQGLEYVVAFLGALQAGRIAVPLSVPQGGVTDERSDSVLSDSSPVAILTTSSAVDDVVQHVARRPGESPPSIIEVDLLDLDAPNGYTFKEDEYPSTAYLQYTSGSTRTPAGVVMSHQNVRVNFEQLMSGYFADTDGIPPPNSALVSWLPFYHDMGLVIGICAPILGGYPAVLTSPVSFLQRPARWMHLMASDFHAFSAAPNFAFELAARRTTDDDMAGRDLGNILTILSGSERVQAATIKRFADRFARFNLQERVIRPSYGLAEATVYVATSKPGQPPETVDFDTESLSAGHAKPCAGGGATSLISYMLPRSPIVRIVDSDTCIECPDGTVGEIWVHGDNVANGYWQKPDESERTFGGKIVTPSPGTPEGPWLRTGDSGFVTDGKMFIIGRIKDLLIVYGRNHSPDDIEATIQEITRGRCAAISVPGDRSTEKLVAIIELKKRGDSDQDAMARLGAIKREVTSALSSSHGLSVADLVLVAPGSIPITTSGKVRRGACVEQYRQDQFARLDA

For O=c1[nH]c2ccccc2nc1-c1cccs1, the EC50 [1] was > 91.1 µM (inactive).

In the case of Oc1nc2ccccc2nc1-c1cccs1, the EC50 [2] is reported as > 91.1 µM (inactive).

In the case of CCCCn1c(NS(=O)(=O)c2ccc(C)cc2)c(C(=O)OCC)c2nc3ccccc3nc21, the IC50 [3] is reported as > 128 µM (inactive).

With CC(C)CCN=C(S)Nc1ccc2nc3n(c(=O)c2c1)CCCCC3 the AC50 [4] was 39.4 µM (active).

For COC(=O)Nc1nnc(-c2ccccc2OC)s1, the IC50 [5] was 1.9 µM (active).

With Cc1ccc(-n2nc3c(N4CCC(C(=O)NCc5ccccc5C)CC4)nnc(C)c3c2C)cc1 the CC50 [6] was 27.8 µM (active), the IC50 [7] was 8.76 µM (active) and the IC50 (Beta Lactamase) was 16.2 µM (inactive).

In the case of Cc1ccc(C2CC(C(F)(F)F)n3nc(C(=O)NCc4ccco4)cc3N2)cc1 (stereo not given), the AC50 [8] is reported as 1.94 µM (active).

In the case of CSc1nc(N)c(C#N)c(-c2ccccc2Cl)c1C#N, the IC50 (Galanin receptor type 3) is reported as 7.09 µM (active) and the EC50 (cells) is reported as > 29.9 µM (inactive).

With COc1ccc(C(=O)Nc2cccc(NC(=O)c3cccs3)c2)cc1 the AC50 [9] was 4.26 µM (active).

For O=C(NNC(=S)Nc1ccc(Cl)cc1)c1ccccc1, the IC50 [10] was > 122 µM (inactive).

In the case of NC(=O)c1cn(-c2ccccc2)nc1-c1cc2ccccc2oc1=O, the IC50 (Galanin receptor type 3) is reported as 13 µM (inactive) and the EC50 (cells) is reported as > 29.9 µM (inactive).

For CCCCCCNc1cc2n(c(=O)n1)CCc1cc(OC)c(OC)cc1-2, the AC50 [11] was 101 µM (active).

In the case of COc1ccc(/C=C\C(=O)CC(O)(c2ccccc2)C(F)(F)F)cc1 (stereo not given), the IC50 [12] is reported as 3.93 µM (active).

For O=C(c1cc2ccccc2o1)N1CCN(S(=O)(=O)c2ccc(F)c(F)c2F)CC1, the IC50 (Beta-galactosidase) was > 80 µM (inactive).

With CN1Cc2c(N3CCOCC3)nc3sc(C#N)c(N)c3c2CC1(C)C the IC50 [5] was 1.06 µM (active).

In the case of N#Cc1ccccc1CSc1ccc(-c2nc3ccccc3[nH]2)cn1, the EC50 [13] is reported as > 79.4 µM (inactive), the EC50 [14] is reported as > 79.4 µM (not active) and the EC50 [15] is reported as > 79.4 µM (not active). For the same compound, the IC50 [16] was 26.5 µM (inactive).

With COc1ccc([C@H]2CC(=O)C=C(C#CC(C)(C)C)C2)cc1 the IC50 (Beta-galactosidase) was > 80 µM (inactive).

With COc1ccc(CNC(=O)NCCc2c[nH]c3ccccc23)cc1 the AC50 [8] was 1.87 µM (active).

With O=C(Nc1cc(F)cc(F)c1)c1ccc(NCCc2ccccc2)c([N+](=O)[O-])c1 the EC50 [17] was > 99 µM (inactive), the EC50 [18] was 88.4 µM (inactive) and the IC50 [19] was 26.2 µM (inactive). For the same compound, the IC50 [20] was 14 µM (active).

With O=C(COC(=O)c1ccc(Cl)nc1)Nc1nnc(-c2ccccc2)o1 the AC50 [11] was 115 µM (active).

In the case of Nc1ncnc2c1ncn2[C@@H]1O[C@H](CNCc2ccc(OCC(=O)Nc3nccs3)cc2)[C@@H](O)[C@H]1O, the AC50 [4] is reported as 32.3 µM (active).

With CCN(CC)CCNc1ccc(CO)c2oc3ccccc3c(=O)c12 the IC50 [19] was 22.3 µM (inactive), the IC50 [20] was 28.4 µM (inactive) and the AC50 [21] was 18.7 µM (active).

With CCn1c(=O)c(=O)n(CC)c2cc(S(=O)(=O)Nc3cc(C)ccc3C)ccc21 the AC50 [9] was 13.6 µM (active).

For CC(=O)c1cccc(-c2cnc3c(NC=O)cc(-c4ccc(N5CCN(C)CC5)cc4)cn23)c1, the EC50 [1] was > 30.4 µM (inactive) and the EC50 [2] was > 91.2 µM (inactive).

With CC(C)(C)NC(=O)C(c1ccccc1F)n1c(=O)c(-c2ccco2)nc2ccccc21 (stereo not given) the IC50 [12] was 1.85 µM (active).

With Cc1c(C(=O)NNC(=O)c2ccccc2O)oc2ccccc12 the IC50 (Albumin) was > 94 µM (inactive).

For C/N=C(\S)NNC(=O)c1cccn(Cc2cccc(Cl)c2)c1=O, the IC50 (Albumin) was > 94.1 µM (inactive).
